We go through 1 compound from patent publication US20220184222A1, “BICYCLE TOXIN CONJUGATES AND USES THEREOF” (BicycleTx Limited, priority 2019, published 2022).

Data set [1] relates to CTG-2393. In words: Champions TumorGraft NSCLC PDX efficacy, model CTG-2393. The class given is in vivo, Mus musculus. As for the experimental part:
(§1) Mice were implanted subcutaneously into the left flank with tumor fragments from one of the various models. After tumors grew to an average of 150-300 mm^3, mice were treated by IV administration Q7Dx4 (n=2) with vehicle or 3 mg/kg of BT5528. Effects on tumor growth were evaluated by measuring percent tumor growth inhibition (% TGI), and the number of complete responders (CR), partial responders (PR), and tumor-free survivors (TFS). Tolerability was assessed by body weight loss, lethality, and clinical signs of adverse treatment-related side effects. Tumor volumes and body weights were measured twice a week.
(§2) Dosing solutions of BT5528 […] were pre-formulated. These dosing solutions were stored at −80° C. in the dark. On each day of dosing, a frozen aliquot of each test agent was thawed, stored at 2-8° C. and used for dosing.
(§3) The animals used in this study are described below: • Species: Mus musculus • Strain: Athymic Nude-Foxn1^nu (immune-compromised) • Source: Envigo (Indianapolis, Ind., USA) • Number of animals per group: 2 • Age and sex: At least 6-8 weeks of age at start of dosing, female • Weight: At least 18 grams at start of dosing • Acclimation period: 3 days
(§4) Stock mice were implanted with tumor cells from Champions TumorGraft® models CTG-0160, CTG-0170, CTG-0178, CTG-0192, CTG-0363, CTG-0808, CTG-0838, CTG-0848, CTG-1212, CTG-1502, CTG-1535, CTG-2011, CTG-2393, CTG-2539 or CTG-2540. After the tumors reached 1000-1500 mm^3, they were harvested and the tumor fragments (approximately 5×5×5 mm^3) were implanted SC in the left flank of the female study mice. Each animal was implanted with a specific passage lot and documented. Tumor growth was monitored twice a week using digital calipers and the tumor volume (TV) was calculated using the formula (0.52×[length×width^2]). When the TV reached an average volume of 150-300 mm^3, animals were matched by tumor size and assigned into Vehicle Control and treatment groups (n=2/group) and dosing was initiated on Day 0. After the initiation of dosing on Day 0, animals were weighed twice per week using a digital scale and TV was measured twice per week and also on the final day of study. The study was completed when the mean tumor volume of Vehicle Control reached 1500 mm^3 or up to Day 60, whichever occurred first.
(§5) Beginning on Day 0, animals were observed daily and weighed twice weekly using a digital scale; data including individual and mean gram weights, mean percent weight change versus Day 0 (% vD0) were recorded for each group and % vD0 plotted at study completion. […] Treatment resulting in a mean % vD0>20% and/or >10% mortality was considered above the maximum tolerated dose. Maximum mean % vD0 (weight nadir) for each treatment group was reported at study completion.
(§6) Inhibition of tumor growth was determined by calculating the percent TGI (100%×[1−(final MTV−initial MTV of a treated group)/(final MTV−initial MTV of the control group)]). Treatment started on Day 0.
(§7) Additional endpoints used to evaluate efficacy were: the number of complete responders (CR), partial responders (PR), and tumor-free survivors (TFS). PRs were considered exclusive of CRs, as were TFS.
(§8) Statistical analyses of anti-tumor efficacy were performed using one-way ANOVA followed by Dunnett's multiple comparisons test (GraphPad Prism version 8.2.0). Significant p-values=<0.05.
(§9) Animals were dosed according to the schedule on Table 7-1. The study was terminated on Day 28.

Data set [2] has as its system CTG-0178. In words: Champions TumorGraft NSCLC PDX efficacy, model CTG-0178. The class given is in vivo, Mus musculus. As for the experimental part:
as §1, §2, §3, §4, §5, §6, §7, §8, §9

For data set [3], the system named is CTG-2540. In words: Champions TumorGraft NSCLC PDX efficacy, model CTG-2540. The class given is in vivo, Mus musculus. On the procedure: as §1, §2, §3, §4, §5, §6, §7, §8, §9
Data set [4] concerns Panc163. In words: PDAC PDX Panc163 xenograft efficacy (Example 5). Type of data set: in vivo, NSG mice. The note with it: 3 mg/kg intravenously weekly, 4-week treatment period. On the procedure: BT5528 and Vehicle were prepared as described in the examples above, and tested in treatment of Pancreatic Ductal Adenocarcinoma (PDAC) in PDX models. PDX models effectively capture patient responses to oncology therapy in a heterogeneous cohort of patients with solid tumors with 80-100% correlation between the PDX and patient response (Izumchenko et al. 2017)
Pancreatic ductal adenocarcinoma patient derived xenograft tumors (PDAC PDX; Panc033 and Panc163) were implanted subcutaneously from source tumors into the flank of NSG mice. Tumor bearing animals were randomized to receive intravenously a weekly dosing of vehicle or 3 mg/kg BT5528. Tumor sizes were monitored by caliper measurements.

The mark [5] stands for this setting: CTG-2393, 3 mg/kg IV Q7Dx4, Day 0-28.
[6] abbreviates: CTG-0178, 3 mg/kg IV Q7Dx4, Day 0-28.
The mark [7] stands for this setting: CTG-2540, 3 mg/kg IV Q7Dx4, Day 0-28.

Starred links: 1 amine or outer side, 2 acyl side, 3 side chain; linkers in the order of their positions; H or OH if unused. Non-standard residues stand in square brackets, D forms with d. Residues, ends and D or L forms follow the SMILES beside them. *: point of attachment. Dolaproine = CO[C@@H]([C@@H]1CCCN1)[C@@H](C)C(=O)O; Dil = CC[C@H](C)[C@H](NC)[C@@H](CC(=O)O)OC; PABC = O=C(OCc1ccc(N[*:1])cc1)[*:2]; X1 = O=C(CCCC(=O)*)ON1C(=O)CCC1=O; X2 = C[C@@H](N*)[C@@H](O)c1ccccc1; Cit = NC(=O)NCCC[C@H](N)C(=O)O; NMeV = CN[C@H](C(=O)O)C(C)C

As to `CC[C@H](C)[C@@H]([C@@H](CC(=O)N1CCC[C@H]1[C@H](OC)[C@@H](C)C(=O)N[C@H](C)[C@@H](O)c1ccccc1)OC)N(C)C(=O)[C@@H](NC(=O)[C@H](C(C)C)N(C)C(=O)OCc1ccc(NC(=O)[C@H](CCCNC(N)=O)NC(=O)[C@@H](NC(=O)CCCC(=O)ON2C(=O)CCC2=O)C(C)C)cc1)C(C)C` [BT5528] (X1-V[Cit][PABC][NMeV]V[Dil][Dolaproine]-X2), the “MTV (mean tumor volume)” value was determined as 158±25 mm^3 in data set [1] (3 mg/kg IV Q7Dx4, Day 28); 1145±271 mm^3 in data set [2] (3 mg/kg IV Q7Dx4, Day 28); 692±156 mm^3 in data set [3] (3 mg/kg IV Q7Dx4, Day 28). The TGI in data set [1] (3 mg/kg IV Q7Dx4, Day 28) is recorded as 107%; in data set [2] (3 mg/kg IV Q7Dx4, Day 28), 16%; in data set [3] (3 mg/kg IV Q7Dx4, Day 28), 75%. The “# CR (complete responders)” value in data set [1] (setting [5]), in data set [2] (setting [6]) and in data set [3] (setting [7]) was 0/0/0 throughout. Besides, the “# PR (partial responders)” value in data set [1] (setting [5]), in data set [2] (setting [6]) and in data set [3] (setting [7]) was 0/0/0 in each case. Further, the “# TFS (tumor-free survivors)” value in data set [1] (setting [5]), in data set [2] (setting [6]) and in data set [3] (setting [7]) was 0/0/0 in each case. In addition, the “% TGI” value in data set [1] (CTG-2393, 3 mg/kg IV Q7Dx4, Day 28) is on record as 107%; in data set [2] (CTG-0178, 3 mg/kg IV Q7Dx4, Day 28), 16%; in data set [3] (CTG-2540, 3 mg/kg IV Q7Dx4, Day 28), 75%. The “Day 28 Tumor Volume Mean TV ± SEM” value stood at 158 ± 25 mm^3 in data set [1] (CTG-2393, BT5528 3 mg/kg IV Q7Dx4, Day 28, n=2); 1145 ± 271 mm^3 in data set [2] (CTG-0178, BT5528 3 mg/kg IV Q7Dx4, Day 28, n=2); 692 ± 156 mm^3 in data set [3] (CTG-2540, BT5528 3 mg/kg IV Q7Dx4, Day 28, n=2). Besides, the “mean body weight loss” value in data set [2] (3 mg/kg IV Q7Dx4) is on record as “minor mean body weight losses on Day 18”; in data set [3] (3 mg/kg IV Q7Dx4), “no mean body weight loss”. Further, in data set [4], the “anti-tumor activity (tumor size by caliper)” value was “significant anti-tumor activity from reduced tumor growth rate to decreasing tumor volumes”.
